# Data from patent publication EP1277738B1, “CONDENSED HETEROARYL DERIVATIVES” (Astellas Pharma Inc., priority 2000, dated 2001).
# Test system: A375 cells
# Assay: Melanoma cell growth inhibition (Alamar Blue)
# Assay type: cell-based
# Details: Homo sapiens, A-375, 46 h
# Protocol: A375 cells from a melanoma cell line were cultured in DMEM medium (GIBCO) supplemented with 10% fetal bovine serum. A375 cells at 10,000 cells/100µl were added to a 96 well plate which contained 1µl/well of the test compounds (final concentration of 0.001 - 30µM). After incubation for over 46 hours, Alamar Blue reagent was added to the medium (10µl/well).
row,SMILES,IC50 [nM]
1,"Oc1cccc(-c2nc(N3CCOCC3)c3oc4ncccc4c3n2)c1 [Co 50, 3-(4-morpholinopyrido[3',2':4,5]furo[3,2-d]pyrimidin-2-yl)phenol]",330 to 4260

# Same assay, conditions: Homo sapiens, A-375; A375 melanoma cell line, incubation for over 46 hours, 0.001 - 30µM; range is stated for the group of ten compounds; read-out: IC50
row,IC50 [nM],SMILES
1,330 to 4260,"Nc1ccc(-c2nc(N3CCOCC3)c3oc4ncccc4c3n2)cc1 [Co 33, 4-(4-morpholinopyrido[3',2':4,5]furo[3,2-d]pyrimidin-2-yl)aniline]"
2,330 to 4260,"c1cc(OCCN2CCNCC2)cc(-c2nc(N3CCOCC3)c3oc4ncccc4c3n2)c1 [Co 69, 4-morpholino-2-[3-(2-piperazin-1-ylethoxy)phenyl]pyrido[3',2':4,5]furo[3,2-d]pyrimidine]"
3,330 to 4260,"Oc1cccc(-c2nc(N3CCOCC3)c3cnccc3n2)c1 [Co 164, 3-(4-morpholinopyrido[4,3-d]pyrimidin-2-yl)phenol]"
4,330 to 4260,"Oc1cccc(-c2nc(N3CCOCC3)c3ncccc3n2)c1 [Co 172, 3-(4-morpholinopyrido[3,2-d]pyrimidin-2-yl)phenol]"
5,330 to 4260,"Oc1cccc(-c2nc(N3CCOCC3)c3ccncc3n2)c1 [Co 174, 3-(4-morpholinopyrido[3,4-d]pyrimidin-2-yl)phenol]"
6,330 to 4260,"COc1ccc2nc(-c3cccc(O)c3)nc(N3CCOCC3)c2c1 [Co 186, 3-(6-methoxy-4-morpholinoquinazolin-2-yl)phenol]"
7,330 to 4260,"Oc1cccc(-c2nc(N3CCOCC3)c3sccc3n2)c1 [Co 190, 3-(4-morpholinothieno[3,2-d]pyrimidin-2-yl)phenol]"
8,330 to 4260,"Oc1cccc(-c2nc(N3CCOCC3)c3nccnc3n2)c1 [Co 191, 3-(4-morpholinopteridin-2-yl)phenol]"

# Target: PI3K (p110α subtype) (Bos taurus, UniProt P32871)
# Assay: Inhibition of PI3K (p110α subtype)
# Assay type: biochemical
# Details: bovine p110α from baculovirus expression system; PI substrate, [γ-32P] ATP, 37°C for 15 minutes
# Protocol: Test Example 1 Inhibition of PI3K (p110α subtype)
# Inhibition was determined using enzyme (bovine p110α) prepared in the baculovirus expression system. Bovine p110 was prepared according to a modification from the method by I. Hiles et al., Cell, 70, 419 (1992). Each compound to be assayed was dissolved in DMSO and the obtained 10 mM DMSO solution was serially diluted with DMSO.
# The compound (0.5µl) to be assayed and enzyme were mixed in 25µl of buffer solution (40 mM Tris-HCl (pH 7.4), 200 mM NaCl, 2 mM dithiothreitol, 5 mM MgCl2). Then, 25µl of 5 mM Tris-HCl (pH 7.4) buffered solution supplemented with 10µg PI (Sigma), 2µ Ci [γ-^32P] ATP (Amersham Pharmacia) and 80µM nonradiolabeled ATP (Sigma) was added to the mixture to initiate the reaction. After reacting at 37°C for 15 minutes, 200µl of 1M HCl and 400µl of CHCl3 / MeOH (1 : 1) were added to the reaction mixture. The resulting mixture was stirred and then centrifuged. After the organic layer was again extracted twice with 150µl of MeOH / 1M HCl (1 : 1). The radioactivity was measured using Cerenkov light.
# Sequence of PI3K (p110α subtype) (P32871 whole entry): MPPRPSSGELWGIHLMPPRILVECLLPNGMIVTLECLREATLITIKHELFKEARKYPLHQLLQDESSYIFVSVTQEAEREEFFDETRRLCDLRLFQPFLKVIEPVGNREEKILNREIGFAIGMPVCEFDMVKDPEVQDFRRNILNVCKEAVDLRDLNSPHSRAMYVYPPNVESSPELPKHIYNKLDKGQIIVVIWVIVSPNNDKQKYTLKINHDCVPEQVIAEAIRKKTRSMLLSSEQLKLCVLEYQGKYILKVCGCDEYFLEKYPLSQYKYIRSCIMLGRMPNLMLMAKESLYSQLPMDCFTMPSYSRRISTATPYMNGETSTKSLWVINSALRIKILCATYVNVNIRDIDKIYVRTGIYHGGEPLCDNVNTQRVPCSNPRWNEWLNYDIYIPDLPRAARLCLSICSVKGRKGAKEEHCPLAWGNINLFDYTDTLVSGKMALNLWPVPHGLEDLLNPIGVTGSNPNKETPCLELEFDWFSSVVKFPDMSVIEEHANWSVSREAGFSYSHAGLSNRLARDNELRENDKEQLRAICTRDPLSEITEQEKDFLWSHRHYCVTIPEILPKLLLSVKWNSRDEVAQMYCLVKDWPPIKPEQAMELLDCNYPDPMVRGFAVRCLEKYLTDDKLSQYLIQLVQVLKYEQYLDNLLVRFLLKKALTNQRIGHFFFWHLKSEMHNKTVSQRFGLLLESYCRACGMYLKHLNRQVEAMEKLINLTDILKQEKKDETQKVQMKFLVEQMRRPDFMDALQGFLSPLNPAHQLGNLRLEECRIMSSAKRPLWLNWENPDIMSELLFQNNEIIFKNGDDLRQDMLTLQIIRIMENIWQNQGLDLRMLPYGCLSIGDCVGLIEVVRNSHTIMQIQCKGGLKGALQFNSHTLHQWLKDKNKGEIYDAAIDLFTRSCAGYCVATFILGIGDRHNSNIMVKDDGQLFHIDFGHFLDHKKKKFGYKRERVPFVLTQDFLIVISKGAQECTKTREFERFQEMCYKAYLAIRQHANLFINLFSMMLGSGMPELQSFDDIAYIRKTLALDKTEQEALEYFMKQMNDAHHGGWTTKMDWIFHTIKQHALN
row,IC50 [nM],SMILES
1,< 1000,O=C(Nc1cccc(-c2nc(N3CCOCC3)c3oc4ncccc4c3n2)c1)c1ccccn1 [Co 10]
2,< 1000,CC(=O)Nc1cccc(-c2nc(N3CCOCC3)c3oc4ncccc4c3n2)c1 [Co 24]

row,SMILES,IC50 [nM]
1,"Nc1ccc(C(=O)Nc2cccc(-c3nc(N4CCOCC4)c4oc5ncccc5c4n3)c2)cn1 [Co 17, 6-amino-3'-.(4-morpholinopyrido[3',2':4,5]furo[3,2-d]pyrimidin-2-yl)nicotinanilide]",< 1000

# Test system: HCT116 cells
# Assay: Colon cancer cell growth inhibition (Alamar Blue)
# Assay type: cell-based
# Details: HCT116 colon cancer cell line, incubation over 72 hours; result in words
# Protocol: Test Example 2 Colon cancer cell growth inhibition
# HCT116 cells from a colon cancer cell line were cultured in McCoy's 5A medium (GIBCO) supplemented with 10% fetal bovine serum. HCT116 cells were inoculated on a 96 well plate (5000 cells/well) followed by overnight incubation. The test compound diluted with the medium was added to the medium in a final concentration of […] (final DMSO concentration, 1%). After incubation over 72 hours, Alamar Blue reagent was added to the medium. Two hours after the addition, a ratio of fluorescent intensity at an excitation wavelength of 530 nm to that at an emission wavelength of 590 nm was measured to determine the IC50. Co 14, Co 24, Co 25, Co 31, Co 46 and Co 47 of the present invention exerted an excellent cancer cell growth inhibition activity.
row,SMILES,cancer cell growth inhibition activity
1,CC(=O)Nc1cccc(-c2nc(N3CCOCC3)c3oc4ncccc4c3n2)c1 [Co 24],excellent
